Like-named read-outs stand apart in the source and are kept apart here.
Key:
Assay type in all cases: cell-based
HIV-1 mutant virus G190A = assay: Inhibition of replication of HIV-1 mutant virus G190A; settings: Human immunodeficiency virus 1, read-out: Average IC50
Method: (§1) Elsulfavirine/Elpida/VM-1500 (la) is the prodrug of the active compound VM-1500A (1b), a Non-Nucleoside Reverse Transcriptase Inhibitor (NNRTI), which efficiently prevents HIV-1 HXB2 strain replication in the MT-4 cell line. […] 0.6±0.6 nM (G190A), 1.3±0.3 nM (L100I/K103N), and 1.3±0.4 nM (K103N/Y181C)

[1] = tested on: HIV-1 mutant virus K103N/Y181C; assay: Inhibition of replication of HIV-1 mutant virus K103N/Y181C; settings: Human immunodeficiency virus 1, read-out: Average IC50
Method: as §1

HIV-1 HXB2 strain = assay: Inhibition of HIV-1 HXB2 (wild-type) replication in MT-4 cell line
Method: as §1

[2] = tested on: HIV-1 mutant virus L100I/K103N; assay: Inhibition of replication of HIV-1 mutant virus L100I/K103N; settings: Human immunodeficiency virus 1, read-out: Average IC50
Method: as §1

HIV-1 mutant virus V106A = assay: Inhibition of replication of HIV-1 mutant virus V106A; settings: Human immunodeficiency virus 1, read-out: Average IC50
Method: as §1

N#Cc1cc(Cl)cc(Oc2c(Br)ccc(CC(=O)Nc3ccc(S(N)(=O)=O)cc3Cl)c2F)c1 [VM-1500A]
IC50 (HIV-1 mutant virus G190A): 0.6 ± 0.6 nM
IC50 [1]: 1.3 ± 0.4 nM
IC50 (HIV-1 HXB2 strain; Human immunodeficiency virus 1, HXB2, MT4, as restated, converted to ng/ml, read-out: effective concentration (IC50)): 0.74 ng/mL
IC50 (HIV-1 HXB2 strain; Human immunodeficiency virus 1, HXB2, MT4, as restated, read-out: effective concentration (IC50)): 1.3 nM
IC50 (HIV-1 HXB2 strain; Human immunodeficiency virus 1, MT4, wild-type HXB2 strain, MT-4 cell line, read-out: Average IC50): 1.3 ± 0.4 nM
IC50 [2]: 1.3 ± 0.3 nM
IC50 (HIV-1 mutant virus V106A): 1.2 ± 0.2 nM

Reference: US20200129533A1, “PHARMACEUTICAL NANOSUSPENSION FOR THE THERAPY OF HIV INFECTION” (priority 2017, published 2020)
